“And” between values parts separate entries of the source, which are not always exact repeats. Identical values can stand only once. Inconclusive results and toxic doses are left out. How the source made its calls: active means survival T/C of 150% or more; inactive means T/C below 125% in these data.
Test system: P388 leukemia ip, CD2F1 mice, survival T/C
Test: NCI In Vivo Anticancer Drug Screen. Data for tumor model P388 Leukemia (intraperitoneal) in CD2F1 (CDF1) mice
Details: endpoint: median survival time, higher = longer survival
In short: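 Mice carrying the transplanted tumor received test compound or vehicle. Survival was recorded in each group, and the value is the treated-group measurement divided by that of the vehicle-treated control group.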

[1] = dose: 12.5 mg/kg/injection, schedule: Q01DX009 (ip), vehicle: Klucel (hydroxypropylcellulose) (HPC)
[2] = dose: 25.0 mg/kg/injection, schedule: Q01DX009 (ip), vehicle: Klucel (hydroxypropylcellulose) (HPC)
[3] = dose: 50.0 mg/kg/injection, schedule: Q01DX009 (ip), vehicle: Klucel (hydroxypropylcellulose) (HPC)
[4] = dose: 100.0 mg/kg/injection, schedule: Q01DX009 (ip), vehicle: Klucel (hydroxypropylcellulose) (HPC)
[5] = dose: 50.0 mg/kg/injection, schedule: Q01DX009 (ip), vehicle: suspension in saline
[6] = dose: 60.0 mg/kg/injection, schedule: Q01DX005 (ip), vehicle: saline with Tween-80
[7] = dose: 120.0 mg/kg/injection, schedule: Q01DX005 (ip), vehicle: saline with Tween-80
[8] = dose: 240.0 mg/kg/injection, schedule: Q01DX005 (ip), vehicle: saline with Tween-80
[9] = dose: 6.25 mg/kg/injection, schedule: Q01DX009 (ip), vehicle: saline with Tween-80
[10] = dose: 50.0 mg/kg/injection, schedule: Q01DX005 (ip), vehicle: Klucel (hydroxypropylcellulose) (HPC)
[11] = dose: 100.0 mg/kg/injection, schedule: Q01DX005 (ip), vehicle: Klucel (hydroxypropylcellulose) (HPC)
[12] = dose: 200.0 mg/kg/injection, schedule: Q01DX005 (ip), vehicle: Klucel (hydroxypropylcellulose) (HPC)
[13] = dose: 50.0 mg/kg/injection, schedule: Q01DX009 (ip), vehicle: saline
[14] = dose: 100.0 mg/kg/injection, schedule: Q01DX009 (ip), vehicle: saline
[15] = dose: 200.0 mg/kg/injection, schedule: Q01DX009 (ip), vehicle: saline
[16] = dose: 50.0 mg/kg/injection, schedule: Q01DX009 (ip), vehicle: other
[17] = dose: 12.5 mg/kg/injection, schedule: Q01DX009 (ip), vehicle: saline with Tween-80
[18] = dose: 25.0 mg/kg/injection, schedule: Q01DX009 (ip), vehicle: saline with Tween-80

Measured: T/C

Cc1cc(C)c(O)c(CS(=O)(=O)Cc2cc(C)cc(C)c2O)c1
inactive: dose: 100.0 mg/kg/injection, schedule: Q04DX002 (ip), vehicle: saline 101 % of control | dose: 200.0 mg/kg/injection, schedule: Q04DX002 (ip), vehicle: saline 97 % of control | dose: 400.0 mg/kg/injection, schedule: Q04DX002 (ip), vehicle: saline 91 % of control

CC(C)(C#N)C#N
inactive: dose: 25.0 mg/kg/injection, schedule: Q04DX003 (ip), vehicle: saline with Tween-80 100 % of control | dose: 50.0 mg/kg/injection, schedule: Q04DX003 (ip), vehicle: saline with Tween-80 100 % of control

COc1ccc(NCS(=O)(=O)O)cc1
inactive: dose: 100.0 mg/kg/injection, schedule: Q04DX003 (ip), vehicle: saline 100 % of control | dose: 200.0 mg/kg/injection, schedule: Q04DX003 (ip), vehicle: saline 108 % of control | dose: 400.0 mg/kg/injection, schedule: Q04DX003 (ip), vehicle: saline 104 % of control

OCC1OC(n2cnc3c(NO)ncnc32)CC1O (stereo not given)
inactive: [1] 100 % of control | [2] 112 % of control | [3] 100 % of control | [4] 100 % of control

C/C(=N\O)c1ccc2c3c(ccc([N+](=O)[O-])c13)CC2
inactive: dose: 6.25 mg/kg/injection, schedule: Q01DX009 (ip), vehicle: suspension in saline 97 % of control | dose: 12.5 mg/kg/injection, schedule: Q01DX009 (ip), vehicle: suspension in saline 98 % of control | dose: 25.0 mg/kg/injection, schedule: Q01DX009 (ip), vehicle: suspension in saline 97 % of control | [5] 96 % of control

NC(N)=NS(=O)(=O)c1ccc(NCc2c3ccccc3nc3cc(Cl)ccc23)cc1
active: [6] 170 % of control
inactive: [7] 121 % of control | [8] 116 % of control

CCCOC(=O)Nc1ccc2nc(N(C)C)sc2c1
inactive: [5] 99 % of control | dose: 100.0 mg/kg/injection, schedule: Q01DX009 (ip), vehicle: suspension in saline 97 % of control | dose: 200.0 mg/kg/injection, schedule: Q01DX009 (ip), vehicle: suspension in saline 102 % of control

O=S(=O)(Nc1ccnn1-c1ccccc1)c1ccc(N=Cc2c3ccccc3nc3cc(Cl)ccc23)cc1
inactive: [6] 94 % of control | [7] 91 % of control | [8] 102 % of control

CC1=NC(C#N)=C(C#N)N=C(C)C1
inactive: [1] 93 % of control | [2] 94 % of control | [3] 93 % of control

CCCOC1=C(N2CC2)C(=O)C(OCCC)=C(N2CC2)C1=O
active: dose: 3.0 mg/kg/injection, schedule: Q01DX009 (ip), vehicle: saline with Tween-80 179 % of control | dose: 4.0 mg/kg/injection, schedule: Q01DX009 (ip), vehicle: saline with Tween-80 181 % of control | dose: 6.0 mg/kg/injection, schedule: Q01DX009 (ip), vehicle: saline with Tween-80 186 % of control | [9] 190 % of control
inactive: dose: 0.89 mg/kg/injection, schedule: Q01DX009 (ip), vehicle: saline with Tween-80 106 % of control | dose: 9.0 mg/kg/injection, schedule: Q01DX009 (ip), vehicle: saline with Tween-80 109 % of control

COC(=O)C1C2C1C1C=CC2n2c(=O)n(-c3ccccc3)c(=O)n21 (stereo not given)
inactive: [10] 97 % of control | [11] 97 % of control | [12] 110 % of control

O=S(=O)(O)CCNC(=S)C(=S)NCCS(=O)(=O)O
inactive: [13] 100 % of control | [14] 100 % of control | [15] 101 % of control

CS(=O)(=O)OCCOS(C)(=O)=O
active: dose: 400.0 mg/kg/injection, schedule: Q01DX009 (ip), vehicle: saline 163 % of control
inactive: [13] 111 % of control | [4] 92 % of control | [14] 123 % of control

Cc1ccc(CCN2CSC(=S)N(CCc3ccc(C)cc3)C2)cc1
inactive: [1] 101 % of control | [2] 96 % of control | [3] 100 % of control | [16] 96 % of control

CC1=Nc2ccc(C(F)(F)F)cc2NC(=O)C1
inactive: [10] 100 % of control | [11] 99 % of control and 97 % of control | [12] 100 % of control and 96 % of control

O=C(O)CSc1ccc([N+](=O)[O-])cc1[N+](=O)[O-]
inactive: dose: 60.0 mg/kg/injection, schedule: Q01DX005 (ip), vehicle: Klucel (hydroxypropylcellulose) (HPC) 107 % of control | [6] 96 % of control | dose: 120.0 mg/kg/injection, schedule: Q01DX005 (ip), vehicle: Klucel (hydroxypropylcellulose) (HPC) 103 % of control | [7] 86 % of control | dose: 240.0 mg/kg/injection, schedule: Q01DX005 (ip), vehicle: Klucel (hydroxypropylcellulose) (HPC) 109 % of control | [8] 95 % of control

COc1cc2c(cc1OC)C(C#N)(Cc1cccc3ccccc13)N(C(=O)c1ccccc1)C=C2 (stereo not given)
inactive: [6] 99 % of control | [7] 101 % of control | [8] 99 % of control

O=c1[nH]c2ccccc2n1CCCN1CCC(n2c(=O)[nH]c3cc(Cl)ccc32)CC1
inactive: [13] 90 % of control | [14] 91 % of control | [15] 88 % of control

CCN(CC)CCN1c2ccccc2Sc2c1ccc1ccccc21
inactive: dose: 50.0 mg/kg/injection, schedule: Q01DX005 (ip), vehicle: saline + Tween-80 + alcohol 112 % of control | dose: 100.0 mg/kg/injection, schedule: Q01DX005 (ip), vehicle: saline + Tween-80 + alcohol 107 % of control | dose: 200.0 mg/kg/injection, schedule: Q01DX005 (ip), vehicle: saline + Tween-80 + alcohol 107 % of control

c1cnc(Nc2c3ccccc3nc3ccccc23)nc1
inactive: dose: 100.0 mg/kg/injection, schedule: Q04DX002 (ip), vehicle: saline with Tween-80 103 % of control | dose: 200.0 mg/kg/injection, schedule: Q04DX002 (ip), vehicle: saline with Tween-80 103 % of control | dose: 400.0 mg/kg/injection, schedule: Q04DX002 (ip), vehicle: saline with Tween-80 94 % of control

Cc1cc(NC(=O)c2ccccc2O)n(-c2ccccc2)n1
inactive: dose: 100.0 mg/kg/injection, schedule: Q01DX001 (ip), vehicle: saline with Tween-80 97 % of control | dose: 200.0 mg/kg/injection, schedule: Q01DX001 (ip), vehicle: saline with Tween-80 100 % of control | dose: 400.0 mg/kg/injection, schedule: Q01DX001 (ip), vehicle: saline with Tween-80 95 % of control

CC(C)Nc1nc(NCC2CC2)nc(ON2C(=O)CCC2=O)n1
inactive: [17] 100 % of control | [18] 99 % of control | dose: 50.0 mg/kg/injection, schedule: Q01DX009 (ip), vehicle: saline with Tween-80 100 % of control and 86 % of control | dose: 200.0 mg/kg/injection, schedule: Q01DX009 (ip), vehicle: saline with Tween-80 104 % of control

Oc1ccc(N=Nc2ccc3ccc4cccc5ccc2c3c45)c2cccnc12
inactive: dose: 25.0 mg/kg/injection, schedule: Q04DX003 (ip), vehicle: Klucel (hydroxypropylcellulose) (HPC) 101 % of control | dose: 50.0 mg/kg/injection, schedule: Q04DX003 (ip), vehicle: Klucel (hydroxypropylcellulose) (HPC) 101 % of control | dose: 100.0 mg/kg/injection, schedule: Q04DX003 (ip), vehicle: Klucel (hydroxypropylcellulose) (HPC) 100 % of control

CCCCNCCC(=O)c1ccc(Cl)cc1
inactive: [9] 100 % of control | [17] 100 % of control | [18] 105 % of control

C=C(COCNc1ccc(Cl)cc1Cl)C(=O)O
inactive: [3] 105 % of control | [4] 89 % of control | dose: 200.0 mg/kg/injection, schedule: Q01DX009 (ip), vehicle: Klucel (hydroxypropylcellulose) (HPC) 99 % of control

COc1cc(CC2c3cc(OC)c(OC)cc3CCN2C)c(NC(=O)c2ccc(C(=O)Nc3cc(OC)c(OC)cc3CC3c4cc(OC)c(OC)cc4CCN3C)cc2)cc1OC (stereo not given)
inactive: dose: 12.5 mg/kg/injection, schedule: Q01DX009 (ip), vehicle: other 90 % of control | dose: 25.0 mg/kg/injection, schedule: Q01DX009 (ip), vehicle: other 92 % of control | [16] 86 % of control | dose: 200.0 mg/kg/injection, schedule: Q01DX009 (ip), vehicle: other 92 % of control | dose: 400.0 mg/kg/injection, schedule: Q01DX009 (ip), vehicle: other 104 % of control
